For series [1], the system named is MC3T3-E1 cells. Nature of the series: Calcium assay (pro-calcifying activity) on mouse pre-osteoblastic cells. As to conditions: for production of calcium by the MC3T3-E1 cells (calcium dosage in culture medium): 9 days, 4 mM Pi, 30 μM compound, vs control+Pi (FIG. 1); for increase in calcification relative to the mineralizing medium: MC3T3-E1, 25 days. The class given is cell-based. The protocol: FIG. 1 represents the calcium dosage in the MC3T3-E1 culture medium (in […] of protein per well) after 9 days of exposure of these cells to 4 mM of Pi ([…]) (control+Pi) and 4 mM of Pi in the presence of 30 μM of each of the compounds referenced DP2SNA, DP2NA, DP2K and DP2S;
(§1) For all experiments, a mouse pre-osteoblastic cell line (MC3T3-E1, ATCC) and human primary osteoblastic cells (HOb, Promocell) were used. The mouse pre-osteoblastic cells were cultured in 75 cm^2 flasks, containing 15 mL of α-MEM medium (M4526, SIGMA) and 10% fetal calf serum (FCS), containing 1% Penicillin/Streptomycin antibiotics and 1% glutamine. Similarly, human HOb cells were cultured in 75 cm 2 flasks containing 15 mL of proliferation medium (Human Osteoblast Proliferation Medium, PromoCell). The cells are maintained in the oven at 37° C., with 5% CO2 and 90% humidity. The medium was changed every three days.
(§2) MC3T3-E1 cells were seeded in 6-well plates at 63,700 cells/well to be treated in order to extract RNA or for alkaline phosphatase enzymatic activity assay and in 48-well plates for the calcium assay at 5250 cells/well. The HOb cells were seeded at 182,000 cells/well in 6-well plates for the extraction of RNA or for the alkaline phosphatase enzymatic activity assay; at 15,000 cells/well in 48-well plates for the calcium assay; at 10,000 cells/well in 48-well plates for the MTT test or the WST-1 test and at 100,000 cells/well in 6-well plates for the protein extraction or for the fluorescence.
(§3) In order to induce the mineralization, the MC3T3-E1 cells were treated with α-MEM medium containing 5% FCS to which 10 mM of β-glycerophosphate and 50 μg/mL of ascorbic acid are added. The HOb cells were treated with the “Osteoblast mineralization medium” (Promocell). […] After filtration, the cells were treated with the respective media (500 μL per well of the 48-well plate and 2 mL per well of the 6-well plate).
The release of calcium in the culture medium of mouse pre-osteoblastic cells (MC3T3-E1) has been studied.
An increase in calcification was observed, relative to the mineralizing medium (FIG. 2), in the presence of DP2R0 at 15 μM (40±2%), at 30 μM (28±18%) and at 50 μM (40±28%), and DP2NA at 15 μM (15±14%), at 30 μM (33±12%) and at 50 μM (10±19%).

Series [2] relates to HOb cells. Nature of the series: Calcium assay (pro-calcifying activity, mineralization) on human primary osteoblastic cells. The class given is cell-based. As to conditions: for increase in calcification relative to the mineralizing condition: HOb. The protocol: as §1, §2, §3
The calcification has also been studied on human osteoblastic cells (Hob, PromoCell, Heidelberg, Germany). They are isolated from femoral trabecular bone tissues.

A short description of series [3]: Acetate migration DP2/DP2′ in solution (stability). The class given is physicochemical. As to conditions: water, after 44 days. The procedure:
The compound DP2′ was extracted from the DP2-DP2′ mixture which is formed when the compound DP2 is dissolved in water. The compound DP2′ has been separated by preparative HPLC chromatography with water as elution solvent.
The inventors have observed that when the compound DP2′ was in water, the delocalization of the acetate group was also present, but with very slow kinetics compared to the DP2→DP2′ reaction. Thus, a solution of DP2′ in water which is left to rest contains, after 44 days, 10 to 15% of DP2. The DP2′ therefore remains alone in the water for a given duration which is quite long. It is therefore possible to test the biological effect of DP2′ in solution in water.
Similarly, the inventors have observed that the kinetics of the DP2→DP2′ reaction is such that it is also possible to test the biological activity of the compound DP2 alone after extraction of the formed compound DP2′. Thus, the two compounds DP2 and DP2′ can coexist or not in water for a given duration.
In methanol, for example, the compound DP2 is therefore alone.
There is about ⅔ of DP2R2 for ⅓ of DP2′. The compound DP2′ comes from a migration of the acetate group (R2) on the 30H position. The compound DP2′ could be isolated and synthesized as previously indicated. […]

The source of these data is patent publication US20240083933A1, “DISACCHARIDES FOR TREATING BONE DISEASES” (UNIVERSITE DE PICARDIE JULES VERNE, priority 2020, published 2024).

For `CCCO[C@H]1OC(CO)[C@@H](O[C@@H]2OC(CO)[C@@H](O)C(O)C2NC(C)=O)C(O)C1O` (stereo partly drawn) [DP2NA, n-propyl, α-D-Glucopyranoside, 4-O-(2-acetamido-2-deoxy-β-D-glucopyranosyl)], the “production of calcium by the MC3T3-E1 cells (calcium dosage in culture medium)” value (shortened to “production of calcium”) in series [1] is given as “increase the production of calcium”. Further, the “increase in calcification relative to the mineralizing medium” value was 15±14% in series [1] (15 μM), 33±12% in series [1] (30 μM) and 10±19% in series [1] (50 μM). For the same compound, the “increase in calcification relative to the mineralizing condition” value in series [2] (14 days, 15 μM) is given as 45±42%; in series [2] (14 days, 30 μM), 44±7%; in series [2] (14 days, 50 μM), 35±8%. Also, the “mineralization of the HOb cells relative to the mineralizing medium alone” value in series [2] (lower concentrations 5, 7.5 and 10 μM (FIG. 4)) is “decrease in mineralization”.

Consider `CCCO[C@H]1O[C@H](COS(=O)(=O)[O-])[C@@H](O[C@@H]2O[C@H](CO)[C@@H](O)[C@H](O)[C@H]2NC(C)=O)[C@H](O)[C@H]1OC(C)=O.[Na+]` [DP2S, n-propyl, 2-0-acetyl-6-O-sulfo-α-D-Glucopyranoside, 4-O-(2-acetamido-2-desoxy-β-D-glucopyranosyl), monosodium salt], for which the “production of calcium” value in series [1] was “significantly inhibits the expression of calcium”.

Regarding `CCCO[C@H]1OC(COS(=O)(=O)[O-])[C@@H](O[C@@H]2OC(CO)[C@@H](O)C(O)C2NC(C)=O)C(O)C1O.[Na+]` (stereo partly drawn) [DP2SNA, n-propyl, 6-O-sulfo-α-D-Glucopyranoside, 4-O-(2-acetamido-2-desoxy-β-D-glucopyranosyl), monosodium salt], the “production of calcium” value in series [1] is “increase the production of calcium”.

With `CCCOC1OC(CO)C(OC2OC(CO)C(O)C(O)C2NC(C)=O)C(OC(C)=O)C1O` [DP2′, n-propyl, 3-0-acetyl-α-D-Glucopyranoside, 4-O-(2-acetamido-2-deoxy-β-D-glucopyranosyl)], the “percentage of mineralization of the HOb cells” value in series [2] (14 days, mineralizing conditions, 30 μM) is recorded as 143.806±36.657%. In addition, the “DP2 content of a solution of DP2′ in water left to rest” value in series [3] is 10 to 15%.
